Peptide text beside a SMILES is read from it. * marks the point of attachment. Cbz = O=C(OCc1ccccc1)*
Test system: wild-type H99 strain
Assay: Proteasome inhibitor / SDS sensitivity growth assay
Format: cell-based, Cryptococcus neoformans
Details: for growth of wild type and complemented strain with SDS and proteasome inhibitor: YPD with 0.025% SDS plus inhibitor
Experimental: For SDS sensitivity testing, SDS was added to YPD to a final concentration of 0.2% (wt/vol), and 2× serial dilutions were prepared in 96-well plates. Cells of H99, the fbp1Δ mutant, and its complemented strain were added to the wells to a final optical density at 600 nm (OD600) of 0.01. The plates were kept at 30° C., and the OD600 was measured every 24 h. […] Twofold serial dilutions were prepared in 96-well plates. The wild-type H99 strain was added to the well containing proteasome inhibitors (MG132 or […]) and SDS to a final OD600 of 0.01. The fbp1Δ mutant was added to YPD with 0.025% SDS only to a final OD600 of 0.01. The growth of cultures was determined by measuring the OD600 every 24 h.
To test whether SDS sensitivity is regulated by the SCF(Fbp1) E3 ligase function, the effects of proteasome inhibitors on Cryptococcus SDS sensitivity was investigated. Fungal growth rates of the wild-type H99 strain, the fp1Δ mutant, and its complemented strain on YPD medium containing 0.025% SDS were determined in the absence or presence of the proteasome inhibitor MG132 or PS-341. MG132 is a cell-permeative proteasome inhibitor which can reduce the degradation of ubiquitin-conjugated proteins by the 26S complex without affecting its ATPase or isopeptidase activity. PS-341 is a potent and reversible proteasome inhibitor that functions to […]. […] Therefore, without wishing to be bound by theory, certain substrates of Fbp1 may also participate in regulation of cell membrane integrity.

| SMILES | effect on growth of the wild-type strain or the mutant, inhibitor alone (25 μM MG132, YPD without SDS) | growth of wild type and complemented strain with SDS and proteasome inhibitor | effect on growth of the wild-type strain or the mutant, inhibitor alone (100 μM PS-341, YPD without SDS) |
| --- | --- | --- | --- |
| CC(C)C[C@@H](C=O)NC(=O)[C@H](CC(C)C)NC(=O)[C@H](CC(C)C)NC(=O)OCc1ccccc1 [MG132] (Cbz-Leu-Leu-Leu-aldehyde) | Neither 25 μM MG132 nor 100 μM PS-341 alone affected the growth | significant growth defect | – |
| CC(C)C[C@H](NC(=O)[C@H](Cc1ccccc1)NC(=O)c1cnccn1)B(O)O [PS-341] | – | significant growth defect | Neither 25 μM MG132 nor 100 μM PS-341 alone affected the growth |
